# According to patent publication US10149876B2, “Tripterygium wilfordii extracts to overcome chemotherapy resistance” (WESTERN UNIVERSITY OF HEALTH SCIENCES, priority 2012, dated 2018):
# Several values for one entry are separate records, joined by “and”; a condition that tells them apart may be missing. Identical values can stand only once. Like-named read-outs stand apart in the source and are kept apart here.
# What was measured:
# BT474-TxR cells = test: SRB cell viability assay, Herceptin-resistant BT474-TxR cells; type: cell-based, human; conditions: for viability at 0.001 µM / viability at 0.02 µM / viability at 0.067 µM / viability at 0.2 µM / viability at 0.67 µM / viability at 2 µM / viability at 6.7 µM / viability at 20 µM / IC50: Homo sapiens; for viability at 0.001 µM / viability at 0.02 µM / viability at 0.067 µM / viability at 0.2 µM / viability at 0.67 µM / viability at 2 µM / viability at 6.7 µM / viability at 20 µM / mean A at 565 nm: 72 h; for IC50: lapatinib, BT474-TxR
# Experimental: PC3-TxR cells were plated into sterile, F-bottom Cellstar® 96 well cell culture plates with lids (Cat #655180, Purchased from Greiner Bio-one, Monroe, N.C.) by placing into each well, 100 μl of medium containing 3000 cells in RPMI 1640 supplemented with 10% fetal bovine serum (Thermo Scientific, Logan, Utah) and a solution of penicillin (100 U/ml) and streptomycin (100 μg/ml) (Life Technologies Grand Island, N.Y.). The cells were at passage 52 at the time of plating. Triplicate wells were assigned to each experimental condition tested, and a 24 hour recovery period for the cells following the seeding of the wells was allowed. During the recovery period, the cells were incubated at 37° C. and 5% CO2.
# The LGT-E was prepared by adding an appropriate amount of LGT-E powder to DMSO to form a 500 mg/ml stock solution. The stock solution was alternately vortexed and sonicated until the LGT-E powder went into solution. The stock solution was diluted in RPMI 1640 medium (Mediatech, Manassas, Va., or Life Technologies Grand Island, NY) to reach the desired concentrations of LGT-E (e.g., 12, 25, or 60 μg/ml).
# Pretreatment of the cells with LGT-E was carried out by aspirating the media from the wells, followed by adding 50 μl of LGT-E solution containing concentrations of either 12 or 25 μg/ml of LGT-E solution and incubation of the cells for two hours under conditions of 37° C. and 5% CO2.
# Media was aspirated from each well, and replaced with a 10% solution of cold trichloroacetic acid (TCA) (Cat #: T6399, purchased from Sigma-Aldrich), and incubated for one hour at 4° C. After the TCA incubation, the TCA solution was aspirated, and the cells were washed five times with tap water. After removing the last wash, the plates were left with lids off at room temperature until the surfaces were dry, which took one to two hours. Then 50 μl of a 0.4% solution of sul-forhodamine B (SRB) sodium salt (Cat #: S9012, purchased from Sigma-Aldrich) was added to each well and the plates were incubated at room temperature for 20 to 30 minutes. Afterwards, the wells were washed five times with a 1% acetic acid solution in 10 mM TRIS base (Cat#: 161-0719, purchased from Bio-Rad Laboratories, Hercules, Calif.). The plates were subsequently left to dry for several hours or overnight. SRB that remained in the dried wells was solubilized by adding 100 μl of SRB solubilization solution (10 mM TRIS base) to each well, and placing the plates either on a gently-moving shaker or letting the plates remain stationary at room temperature until the SRB dissolves, which takes about five to ten minutes. The amount of SRB in each well, which correlated directly to the number of living cells at fixation, was determined spectrophotometrically at an absorbance of 565 nm by a microplate reader.
# SkBr3 cells = test: SRB cell viability assay, lapatinib-sensitive SkBr3 cells; type: cell-based, human; conditions: for mean A at 565 nm: no chemosensitizing pre-treatment, background = 0.047
# Experimental: Cell culture of the above cell lines was performed as described in Example 2, except that 5,000, rather than 3,000 cells were plated per well for the K562, K562/Dox, BT474, SkBr3 lines.
# Table 17 also contains the serially-diluted concentrations of drugs that each cell line was tested against.
# FIG. 13 summarizes the data of Tables 32-33 in a graphical format.
compound,measurement,setting,value
CS(=O)(=O)CCNCc1ccc(-c2ccc3ncnc(Nc4ccc(OCc5cccc(F)c5)c(Cl)c4)c3c2)o1 [lapatinib],viability at 0.001 µM,"BT474-TxR cells; Lapatinib 0.001 μM, no LGT-E pre-treatment (control to Table 28)",100%
same,viability at 0.001 µM,"BT474-TxR cells; Lapatinib 0.001 μM, no LGT-E pre-treatment (control to Table 30)",100%
same,viability at 0.001 µM,"BT474-TxR cells; Lapatinib 0.001 μM, pre-treated with 25 μg/ml LGT-E",100%
same,viability at 0.001 µM,"BT474-TxR cells; Lapatinib 0.001 μM, pre-treated with […] LGT-E",100%
same,viability at 0.02 µM,"BT474-TxR cells; Lapatinib 0.02 μM, no LGT-E pre-treatment (control to Table 28)",97.3%
same,viability at 0.02 µM,"BT474-TxR cells; Lapatinib 0.02 μM, no LGT-E pre-treatment (control to Table 30)",82.6%
same,viability at 0.02 µM,"BT474-TxR cells; Lapatinib 0.02 μM, pre-treated with 25 μg/ml LGT-E",85.8%
same,viability at 0.02 µM,"BT474-TxR cells; Lapatinib 0.02 μM, pre-treated with […] LGT-E",94%
same,viability at 0.067 µM,"BT474-TxR cells; Lapatinib 0.067 μM, no LGT-E pre-treatment (control to Table 28)",97.6%
same,viability at 0.067 µM,"BT474-TxR cells; Lapatinib 0.067 μM, no LGT-E pre-treatment (control to Table 30)",91.8%
same,viability at 0.067 µM,"BT474-TxR cells; Lapatinib 0.067 μM, pre-treated with 25 μg/ml LGT-E",77.3%
same,viability at 0.067 µM,"BT474-TxR cells; Lapatinib 0.067 μM, pre-treated with […] LGT-E",91.3%
same,viability at 0.2 µM,"BT474-TxR cells; Lapatinib 0.2 μM, no LGT-E pre-treatment (control to Table 28)",84.7%
same,viability at 0.2 µM,"BT474-TxR cells; Lapatinib 0.2 μM, no LGT-E pre-treatment (control to Table 30)",76.9%
same,viability at 0.2 µM,"BT474-TxR cells; Lapatinib 0.2 μM, pre-treated with 25 μg/ml LGT-E",67.9%
same,viability at 0.2 µM,"BT474-TxR cells; Lapatinib 0.2 μM, pre-treated with […] LGT-E",70.9%
same,viability at 0.67 µM,"BT474-TxR cells; Lapatinib 0.67 μM, no LGT-E pre-treatment (control to Table 28)",68.7%
same,viability at 0.67 µM,"BT474-TxR cells; Lapatinib 0.67 μM, no LGT-E pre-treatment (control to Table 30)",70.5%
same,viability at 0.67 µM,"BT474-TxR cells; Lapatinib 0.67 μM, pre-treated with 25 μg/ml LGT-E",57.4%
same,viability at 0.67 µM,"BT474-TxR cells; Lapatinib 0.67 μM, pre-treated with […] LGT-E",59.9%
same,viability at 2 µM,"BT474-TxR cells; Lapatinib 2 μM, no LGT-E pre-treatment (control to Table 28)",65.2%
same,viability at 2 µM,"BT474-TxR cells; Lapatinib 2 μM, no LGT-E pre-treatment (control to Table 30)",60.6%
same,viability at 2 µM,"BT474-TxR cells; Lapatinib 2 μM, pre-treated with 25 μg/ml LGT-E",50.4%
same,viability at 2 µM,"BT474-TxR cells; Lapatinib 2 μM, pre-treated with […] LGT-E",53.5%
same,viability at 6.7 µM,"BT474-TxR cells; Lapatinib 6.7 μM, no LGT-E pre-treatment (control to Table 28)",59.4%
same,viability at 6.7 µM,"BT474-TxR cells; Lapatinib 6.7 μM, no LGT-E pre-treatment (control to Table 30)",55.1%
same,viability at 6.7 µM,"BT474-TxR cells; Lapatinib 6.7 μM, pre-treated with 25 μg/ml LGT-E",37.1%
same,viability at 6.7 µM,"BT474-TxR cells; Lapatinib 6.7 μM, pre-treated with […] LGT-E",46.3%
same,viability at 20 µM,"BT474-TxR cells; Lapatinib 20 μM, no LGT-E pre-treatment (control to Table 28)",52.3%
same,viability at 20 µM,"BT474-TxR cells; Lapatinib 20 μM, no LGT-E pre-treatment (control to Table 30)",43.8%
same,viability at 20 µM,"BT474-TxR cells; Lapatinib 20 μM, pre-treated with 25 μg/ml LGT-E",24.9%
same,viability at 20 µM,"BT474-TxR cells; Lapatinib 20 μM, pre-treated with […] LGT-E",40.6%
same,IC50,"BT474-TxR cells; LGT-E 25 μg/ml pre-treatment, read-out: IC50 of drug when cells pre-treated with Chemosensitizing Agent before drug treatment",2 µM and 1.16 µg/mL
same,IC50,"BT474-TxR cells; line of LGT-E 25 μg/ml, read-out: IC50 of drug when cells treated with drug only",11 µM and 6.39 µg/mL
same,mean A at 565 nm,"BT474-TxR cells; Lapatinib 0.001 μM, no LGT-E pre-treatment (control to Table 28), background = 0.045",1.135
same,mean A at 565 nm,"BT474-TxR cells; Lapatinib 0.001 μM, no LGT-E pre-treatment (control to Table 30), background = 0.047",1.176
same,mean A at 565 nm,"BT474-TxR cells; Lapatinib 0.001 μM, pre-treated with 25 μg/ml LGT-E, background = 0.047",0.957
same,mean A at 565 nm,"BT474-TxR cells; Lapatinib 0.001 μM, pre-treated with […] LGT-E, background = 0.045",0.997
same,mean A at 565 nm,"BT474-TxR cells; Lapatinib 0.02 μM, no LGT-E pre-treatment (control to Table 28), background = 0.045",1.104
same,mean A at 565 nm,"BT474-TxR cells; Lapatinib 0.02 μM, no LGT-E pre-treatment (control to Table 30), background = 0.047",0.971
same,mean A at 565 nm,"BT474-TxR cells; Lapatinib 0.02 μM, pre-treated with 25 μg/ml LGT-E, background = 0.047",0.821
same,mean A at 565 nm,"BT474-TxR cells; Lapatinib 0.02 μM, pre-treated with […] LGT-E, background = 0.045",0.937
same,mean A at 565 nm,"BT474-TxR cells; Lapatinib 0.067 μM, no LGT-E pre-treatment (control to Table 30), background = 0.047",1.079
same,mean A at 565 nm,"BT474-TxR cells; Lapatinib 0.067 μM, pre-treated with 25 μg/ml LGT-E, background = 0.047",0.740
same,mean A at 565 nm,"BT474-TxR cells; Lapatinib 0.067 μM, pre-treated with […] LGT-E, background = 0.045",0.911
same,mean A at 565 nm,"BT474-TxR cells; Lapatinib 0.2 μM, no LGT-E pre-treatment (control to Table 28), background = 0.045",0.961
same,mean A at 565 nm,"BT474-TxR cells; Lapatinib 0.2 μM, no LGT-E pre-treatment (control to Table 30), background = 0.047",0.905
same,mean A at 565 nm,"BT474-TxR cells; Lapatinib 0.2 μM, pre-treated with 25 μg/ml LGT-E, background = 0.047",0.650
same,mean A at 565 nm,"BT474-TxR cells; Lapatinib 0.2 μM, pre-treated with […] LGT-E, background = 0.045",0.707
same,mean A at 565 nm,"BT474-TxR cells; Lapatinib 0.67 μM, no LGT-E pre-treatment (control to Table 28), background = 0.045",0.780
same,mean A at 565 nm,"BT474-TxR cells; Lapatinib 0.67 μM, no LGT-E pre-treatment (control to Table 30), background = 0.047",0.829
same,mean A at 565 nm,"BT474-TxR cells; Lapatinib 0.67 μM, pre-treated with 25 μg/ml LGT-E, background = 0.047",0.549
same,mean A at 565 nm,"BT474-TxR cells; Lapatinib 0.67 μM, pre-treated with […] LGT-E, background = 0.045",0.598
same,mean A at 565 nm,"BT474-TxR cells; Lapatinib 2 μM, no LGT-E pre-treatment (control to Table 28), background = 0.045",0.739
same,mean A at 565 nm,"BT474-TxR cells; Lapatinib 2 μM, no LGT-E pre-treatment (control to Table 30), background = 0.047",0.712
same,mean A at 565 nm,"BT474-TxR cells; Lapatinib 2 μM, pre-treated with 25 μg/ml LGT-E, background = 0.047",0.482
same,mean A at 565 nm,"BT474-TxR cells; Lapatinib 2 μM, pre-treated with […] LGT-E, background = 0.045",0.533
same,mean A at 565 nm,"BT474-TxR cells; Lapatinib 6.7 μM, no LGT-E pre-treatment (control to Table 28), background = 0.045",0.674
same,mean A at 565 nm,"BT474-TxR cells; Lapatinib 6.7 μM, no LGT-E pre-treatment (control to Table 30), background = 0.047",0.648
same,mean A at 565 nm,"BT474-TxR cells; Lapatinib 6.7 μM, pre-treated with 25 μg/ml LGT-E, background = 0.047",0.355
same,mean A at 565 nm,"BT474-TxR cells; Lapatinib 6.7 μM, pre-treated with […] LGT-E, background = 0.045",0.461
same,mean A at 565 nm,"BT474-TxR cells; Lapatinib 20 μM, no LGT-E pre-treatment (control to Table 28), background = 0.045",0.594
same,mean A at 565 nm,"BT474-TxR cells; Lapatinib 20 μM, no LGT-E pre-treatment (control to Table 30), background = 0.047",0.515
same,mean A at 565 nm,"BT474-TxR cells; Lapatinib 20 μM, pre-treated with 25 μg/ml LGT-E, background = 0.047",0.239
same,mean A at 565 nm,"BT474-TxR cells; Lapatinib 20 μM, pre-treated with […] LGT-E, background = 0.045",0.405
same,IC50,"SkBr3 cells; Homo sapiens, SK-BR-3, read-out: IC50 of drug when cells treated with drug only",241 nM and 0.14 µg/mL
same,mean A at 565 nm,SkBr3 cells; Lapatinib 0.001 μM,2.203
same,mean A at 565 nm,SkBr3 cells; Lapatinib 0.067 μM,1.707
same,mean A at 565 nm,SkBr3 cells; Lapatinib 0.2 μM,1.314
same,mean A at 565 nm,SkBr3 cells; Lapatinib 0.67 μM,0.708
same,mean A at 565 nm,SkBr3 cells; Lapatinib 2 μM,0.347
same,mean A at 565 nm,SkBr3 cells; Lapatinib 6.7 μM,0.211
same,mean A at 565 nm,SkBr3 cells; Lapatinib 20 μM,0.221
